Results reported in ChEMBL document CHEMBL1201862, “PubChem BioAssay data set” (2004).
Calls of active or inactive are those of the source.

Tests used:
[1] = biological target: Ras and Rab interactor 1/Tyrosine-protein kinase ABL1 (Homo sapiens, UniProt P00519+Q13671); assay type: functional;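 further: biochemical TR-FRET dose-response test measuring inhibition of binding between Rin1 and Abl proteins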
[2] = biological target: T1, Probable nicotinate-nucleotide adenylyltransferase (Staphylococcus aureus (strain N315), UniProt P65502); assay type: functional, Staphylococcus aureus subsp. aureus N315;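 on IC50 Mean: confirmatory dose-response retesting of NadD inhibitor hits first found in an ultra-high-throughput screen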
T1 sequence (P65502 whole entry): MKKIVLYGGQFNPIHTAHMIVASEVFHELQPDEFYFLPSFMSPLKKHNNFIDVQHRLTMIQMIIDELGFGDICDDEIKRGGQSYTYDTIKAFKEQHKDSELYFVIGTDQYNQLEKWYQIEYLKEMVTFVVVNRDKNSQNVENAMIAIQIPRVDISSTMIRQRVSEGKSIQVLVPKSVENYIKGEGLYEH

[3] = biological target: T1, Probable nicotinate-nucleotide adenylyltransferase; assay type: functional, Staphylococcus aureus subsp. aureus N315; conditions: read-out: IC50_Mean
[4] = biological target: Hepatocyte nuclear factor 4-alpha (Homo sapiens, UniProt P41235); assay type: functional, cell-based;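 further: biochemical luminescence-based dose-response counterscreen measuring inhibition of HNF4 dimerization, run alongside a screen for blockers of ABHD5–perilipin-5 interaction; split luciferase complementation of HNF4 fusion proteins in cell lysate measuring dimerization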
Sequence of Hepatocyte nuclear factor 4-alpha (P41235 whole entry, the tested form may be a part): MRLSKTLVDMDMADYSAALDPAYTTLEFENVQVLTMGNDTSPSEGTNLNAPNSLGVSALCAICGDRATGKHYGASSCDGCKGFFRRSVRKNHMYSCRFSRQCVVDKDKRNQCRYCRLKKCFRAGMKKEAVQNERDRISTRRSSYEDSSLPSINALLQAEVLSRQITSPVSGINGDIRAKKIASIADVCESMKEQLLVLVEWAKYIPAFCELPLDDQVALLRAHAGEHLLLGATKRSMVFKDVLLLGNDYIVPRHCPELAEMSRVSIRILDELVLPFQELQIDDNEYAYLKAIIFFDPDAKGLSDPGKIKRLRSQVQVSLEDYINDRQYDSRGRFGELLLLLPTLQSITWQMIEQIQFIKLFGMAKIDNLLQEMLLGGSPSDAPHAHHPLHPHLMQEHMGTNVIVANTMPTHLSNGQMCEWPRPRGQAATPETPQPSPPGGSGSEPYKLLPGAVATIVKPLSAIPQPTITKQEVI

[5] = biological target: Protein Wnt-3a (Mus musculus, UniProt P27467); experiment: Wnt3a-driven reporter signaling inhibition, dose response, selectivity assay for Gli-SUFU antagonist project, Wnt-LIGHT cells, luminescence (AID 651570); assay type: functional; conditions: read-out: IC50_Mean;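 further: Wnt-LIGHT reporter cells stimulated with conditioned medium from Wnt3a-producing cells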
Sequence of Protein Wnt-3a (P27467 whole entry): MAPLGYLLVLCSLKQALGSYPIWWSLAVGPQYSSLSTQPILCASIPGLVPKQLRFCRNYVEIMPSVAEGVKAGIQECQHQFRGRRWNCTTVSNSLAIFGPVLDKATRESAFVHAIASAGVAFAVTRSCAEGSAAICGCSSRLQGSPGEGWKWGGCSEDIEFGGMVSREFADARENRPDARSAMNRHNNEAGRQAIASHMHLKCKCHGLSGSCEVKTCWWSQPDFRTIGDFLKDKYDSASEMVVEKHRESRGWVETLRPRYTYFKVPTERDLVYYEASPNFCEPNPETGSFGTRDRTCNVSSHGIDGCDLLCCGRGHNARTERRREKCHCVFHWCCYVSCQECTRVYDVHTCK

[6] = test system: INS1; experiment: beta cell apoptosis inhibitors, cytokine rescue, dose response, luminescence, retest (AID 449756); assay type: functional, cell-based; conditions: Rattus norvegicus;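 further: cell death triggered by IL-1 beta plus TNF-alpha plus IFN-gamma mixture; protective hits raise ATP signal compared with cytokine alone wells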
[7] = Shn3 3'UTR reporter inhibitors, dose response, cell-based, Clone20 osteoblasts, firefly luciferase, cherry-picked (AID 624132); assay type: functional;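 further: firefly luciferase luminescence from reporter carrying the Shn3 3'UTR in osteoblasts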
[8] = HepG2 cell cytotoxicity, dose response, cytotoxicity control for Shn3 inhibitor project, CellTiter-Glo, cherry-picked (AID 624134); assay type: functional, cell-based
[9] = biological target: T2, Heat shock factor protein 1 (Mus musculus, UniProt P38532); experiment: inhibition of MG132-induced HSE-luciferase signal, confirmation, cell-based, NIH3T3, luminescence, dose retest (AID 2382); assay type: functional;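 further: NIH3T3 fibroblasts with HSF1-driven luciferase reporter stressed by proteasome inhibitor MG132; luminescence from HSF1-driven luciferase expression after 8 hours of MG132 stress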
T2 sequence (P38532 whole entry): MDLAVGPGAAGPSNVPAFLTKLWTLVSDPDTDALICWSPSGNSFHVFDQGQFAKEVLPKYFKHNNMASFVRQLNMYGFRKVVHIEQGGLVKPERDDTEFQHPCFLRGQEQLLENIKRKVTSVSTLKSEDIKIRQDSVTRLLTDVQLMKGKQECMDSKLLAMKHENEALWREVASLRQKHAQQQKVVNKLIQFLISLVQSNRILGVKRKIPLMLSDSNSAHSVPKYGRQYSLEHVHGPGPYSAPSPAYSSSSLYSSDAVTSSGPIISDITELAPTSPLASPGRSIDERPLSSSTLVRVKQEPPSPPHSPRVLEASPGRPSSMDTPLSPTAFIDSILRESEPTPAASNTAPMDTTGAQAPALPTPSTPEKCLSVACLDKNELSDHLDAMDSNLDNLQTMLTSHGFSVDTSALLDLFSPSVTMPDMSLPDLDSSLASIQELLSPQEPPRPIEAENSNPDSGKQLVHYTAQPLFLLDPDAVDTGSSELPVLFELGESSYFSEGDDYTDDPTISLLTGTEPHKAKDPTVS

[10] = biological target: Mitochondrial peptide methionine sulfoxide reductase (Bos taurus, UniProt P54149); assay type: functional;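 further: absorbance read-out, biochemical high-throughput dose-response screen for MsrA inhibitors, confirmatory; recombinant bovine MsrA coupled to E. coli TrxB with NADPH and selenocystamine; potency is for inhibitors of MsrA activity on DMSO substrate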
Sequence of Mitochondrial peptide methionine sulfoxide reductase (P54149 whole entry): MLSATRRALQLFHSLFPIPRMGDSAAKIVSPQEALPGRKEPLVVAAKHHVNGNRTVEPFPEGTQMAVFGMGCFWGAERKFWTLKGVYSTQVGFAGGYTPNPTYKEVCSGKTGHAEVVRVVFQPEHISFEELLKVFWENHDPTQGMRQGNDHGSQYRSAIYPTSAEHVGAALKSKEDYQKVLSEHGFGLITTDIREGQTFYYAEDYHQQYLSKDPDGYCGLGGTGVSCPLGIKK

[11] = biological target: Nuclear receptor subfamily 5 group A member 2 (Homo sapiens, UniProt O00482); assay type: functional, cell-based;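 further: HEK293T cells transfected with LRH-1 and a StAR promoter luciferase reporter; potency for inhibitors that lower LRH-1 driven reporter light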
Sequence of Nuclear receptor subfamily 5 group A member 2 (O00482 whole entry): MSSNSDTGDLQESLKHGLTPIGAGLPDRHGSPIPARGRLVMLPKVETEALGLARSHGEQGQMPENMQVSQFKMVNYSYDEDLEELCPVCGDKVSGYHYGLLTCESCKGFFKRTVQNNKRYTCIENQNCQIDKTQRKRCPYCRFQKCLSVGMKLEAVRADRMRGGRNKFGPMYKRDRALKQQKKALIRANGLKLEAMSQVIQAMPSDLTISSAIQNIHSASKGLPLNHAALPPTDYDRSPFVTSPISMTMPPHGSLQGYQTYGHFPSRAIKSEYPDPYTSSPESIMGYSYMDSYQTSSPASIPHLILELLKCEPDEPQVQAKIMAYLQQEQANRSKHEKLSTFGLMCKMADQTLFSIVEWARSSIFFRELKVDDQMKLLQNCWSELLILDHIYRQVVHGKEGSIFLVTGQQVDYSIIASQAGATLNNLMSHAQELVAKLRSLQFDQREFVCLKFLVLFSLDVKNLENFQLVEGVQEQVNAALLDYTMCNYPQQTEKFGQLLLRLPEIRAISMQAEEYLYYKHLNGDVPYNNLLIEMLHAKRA

[12] = biological target: Steroidogenic factor 1 (Homo sapiens, UniProt Q13285); experiment: Counterscreen for inverse agonists of the liver receptor homolog-1 (LRH-1; NR5A2): Luminescence-based cell-based high throughput dose response assay to identify inverse agonists of the Steroidogenic Factor 1 Nuclear Receptor (SF1; NR5A1).; assay type: functional
Sequence of Steroidogenic factor 1 (Q13285 whole entry): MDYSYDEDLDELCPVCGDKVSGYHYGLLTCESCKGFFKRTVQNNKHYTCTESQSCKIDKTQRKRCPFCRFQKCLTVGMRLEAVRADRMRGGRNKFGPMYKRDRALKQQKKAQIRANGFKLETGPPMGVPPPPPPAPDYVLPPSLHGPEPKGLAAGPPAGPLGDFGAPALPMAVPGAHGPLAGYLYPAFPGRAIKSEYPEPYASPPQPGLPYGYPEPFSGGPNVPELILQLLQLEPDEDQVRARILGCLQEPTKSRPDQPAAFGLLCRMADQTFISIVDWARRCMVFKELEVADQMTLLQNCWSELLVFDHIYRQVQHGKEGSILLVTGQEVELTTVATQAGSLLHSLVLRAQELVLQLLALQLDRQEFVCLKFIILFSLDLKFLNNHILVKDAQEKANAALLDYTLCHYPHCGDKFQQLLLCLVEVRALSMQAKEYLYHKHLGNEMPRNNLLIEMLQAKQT

[13] = StAR promoter reporter inhibition counter-screen, dose response, counter-screen for LRH-1 inverse agonist project, cell-based, luminescence, luciferase reporter (AID 651969); assay type: functional
[14] = biological target: Cytochrome P450 2C9 (Homo sapiens, UniProt P11712)
Sequence of Cytochrome P450 2C9 (P11712 whole entry): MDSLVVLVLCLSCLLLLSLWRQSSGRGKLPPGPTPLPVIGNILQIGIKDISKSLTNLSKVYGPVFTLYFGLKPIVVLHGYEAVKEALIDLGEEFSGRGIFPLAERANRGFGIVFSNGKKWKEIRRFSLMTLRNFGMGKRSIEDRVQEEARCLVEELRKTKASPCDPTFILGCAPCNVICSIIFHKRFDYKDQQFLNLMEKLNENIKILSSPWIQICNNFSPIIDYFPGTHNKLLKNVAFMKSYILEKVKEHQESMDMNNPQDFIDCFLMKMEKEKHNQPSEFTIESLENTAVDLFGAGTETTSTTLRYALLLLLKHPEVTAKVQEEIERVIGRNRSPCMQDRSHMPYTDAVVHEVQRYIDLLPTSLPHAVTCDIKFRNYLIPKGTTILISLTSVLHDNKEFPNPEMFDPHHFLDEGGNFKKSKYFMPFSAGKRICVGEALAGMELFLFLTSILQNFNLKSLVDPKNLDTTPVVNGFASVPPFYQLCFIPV

[15] = HEp-2 cell cytotoxicity, dose response, cytotoxicity control for RSV inhibitor project, HTS (AID 2410); assay type: functional; conditions: human respiratory syncytial virus
[16] = inhibitors of intracellular T. cruzi replication, confirmation, NIH3T3 host cells, beta-gal luminescence (AID 2044); assay type: functional, cell-based;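 further: intracellular parasites grown in NIH/3T3 mouse fibroblasts as host cells; luminescent beta-galactosidase reporter signal from transgenic T. cruzi replicating inside host cells; inhibitors lower the luminescence signal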
[17] = cytotoxicity toward NIH3T3 fibroblasts, dose response, counter-screen, cell-based, ATP luminescence, mouse fibroblasts (AID 2010); assay type: functional;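 further: cells exposed to compound for about 90 hours before reading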
[18] = test system: CHO-K1; experiment: (§1) Counterscreen for antagonists of the orexin 1 receptor (OX1R; HCRTR1): Homogeneous time resolved fluorescence (HTRF)-based cell-based dose response assay to identify antagonists of the parental CHO-K1 cell line. [Related pubchem assays (depositor defined):AID434989, AID435008, AID463079, AID485270, AID492963, AID492964, AID492965, AID493232, AID504699, AID504701]; assay type: functional; conditions: Cricetulus griseus
[19] = as §1, with “Fluorescence-based” for “Homogeneous time resolved fluorescence (HTRF)-based”, “cell-based high throughput” for “cell-based”, “CHO” for “CHO-K1”; assay type: functional
[20] = biological target: T3, Orexin/Hypocretin receptor type 1 (Homo sapiens, UniProt O43613); experiment: Homogeneous Time Resolved Fluorescence (HTRF)-based cell-based high throughput dose response assay for antagonists of the orexin 1 receptor (OX1R; HCRTR1). [Related pubchem assays (depositor defined):AID434989, AID435008, AID463079, AID485270, AID492963, AID492964, AID492965, AID493232, AID504717, AID504718]; assay type: functional
T3 sequence (O43613 whole entry): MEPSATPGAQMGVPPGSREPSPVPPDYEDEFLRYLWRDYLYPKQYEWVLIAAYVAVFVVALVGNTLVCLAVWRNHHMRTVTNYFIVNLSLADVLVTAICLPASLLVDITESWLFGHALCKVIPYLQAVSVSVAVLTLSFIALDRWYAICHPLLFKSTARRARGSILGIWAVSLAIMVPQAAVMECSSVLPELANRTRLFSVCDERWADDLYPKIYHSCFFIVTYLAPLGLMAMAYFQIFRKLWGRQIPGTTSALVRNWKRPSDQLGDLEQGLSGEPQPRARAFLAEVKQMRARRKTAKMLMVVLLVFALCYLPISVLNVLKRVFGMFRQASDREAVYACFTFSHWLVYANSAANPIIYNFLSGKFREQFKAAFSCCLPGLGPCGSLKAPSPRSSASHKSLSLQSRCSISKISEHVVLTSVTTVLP

[21] = biological target: T3, Orexin/Hypocretin receptor type 1; experiment: Fluorescence-based cell-based high throughput dose response assay for antagonists of the orexin 1 receptor (OX1R; HCRTR1). [Related pubchem assays (depositor defined):AID434989, AID435008, AID463079, AID485270, AID492963, AID492964, AID492965, AID493232, AID504717, AID504718]; assay type: functional
[22] = biological target: T4, Orexin receptor type 2 (Homo sapiens, UniProt O43614); experiment: Counterscreen assay for antagonists of the orexin 1 receptor (OX1R; HCRTR1): Fluorescence-based cell-based dose response assay for antagonists of the orexin 2 receptor (OX2R; HCRTR2), run by assay provider.; assay type: functional
T4 sequence (O43614 whole entry): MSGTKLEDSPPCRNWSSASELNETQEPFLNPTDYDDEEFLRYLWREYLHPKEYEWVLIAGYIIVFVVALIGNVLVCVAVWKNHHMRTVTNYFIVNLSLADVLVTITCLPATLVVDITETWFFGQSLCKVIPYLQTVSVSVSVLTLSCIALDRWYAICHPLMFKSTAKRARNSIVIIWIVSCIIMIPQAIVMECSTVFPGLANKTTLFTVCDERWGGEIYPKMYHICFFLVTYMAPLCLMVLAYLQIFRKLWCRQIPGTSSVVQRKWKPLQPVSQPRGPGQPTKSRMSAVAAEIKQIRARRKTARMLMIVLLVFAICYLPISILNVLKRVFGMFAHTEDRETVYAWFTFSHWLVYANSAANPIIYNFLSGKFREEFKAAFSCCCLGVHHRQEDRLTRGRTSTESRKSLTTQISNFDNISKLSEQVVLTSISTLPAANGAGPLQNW

[23] = biological target: T4, Orexin receptor type 2; experiment: Counterscreen assay for antagonists of the orexin 1 receptor (OX1R; HCRTR1): Homogeneous Time Resolved Fluorescence (HTRF)-based cell-based dose response assay for antagonists of the orexin 2 receptor (OX2R; HCRTR2), run by assay provider.; assay type: functional

Sequence of Ras and Rab interactor 1/Tyrosine-protein kinase ABL1 (P00519 whole entry): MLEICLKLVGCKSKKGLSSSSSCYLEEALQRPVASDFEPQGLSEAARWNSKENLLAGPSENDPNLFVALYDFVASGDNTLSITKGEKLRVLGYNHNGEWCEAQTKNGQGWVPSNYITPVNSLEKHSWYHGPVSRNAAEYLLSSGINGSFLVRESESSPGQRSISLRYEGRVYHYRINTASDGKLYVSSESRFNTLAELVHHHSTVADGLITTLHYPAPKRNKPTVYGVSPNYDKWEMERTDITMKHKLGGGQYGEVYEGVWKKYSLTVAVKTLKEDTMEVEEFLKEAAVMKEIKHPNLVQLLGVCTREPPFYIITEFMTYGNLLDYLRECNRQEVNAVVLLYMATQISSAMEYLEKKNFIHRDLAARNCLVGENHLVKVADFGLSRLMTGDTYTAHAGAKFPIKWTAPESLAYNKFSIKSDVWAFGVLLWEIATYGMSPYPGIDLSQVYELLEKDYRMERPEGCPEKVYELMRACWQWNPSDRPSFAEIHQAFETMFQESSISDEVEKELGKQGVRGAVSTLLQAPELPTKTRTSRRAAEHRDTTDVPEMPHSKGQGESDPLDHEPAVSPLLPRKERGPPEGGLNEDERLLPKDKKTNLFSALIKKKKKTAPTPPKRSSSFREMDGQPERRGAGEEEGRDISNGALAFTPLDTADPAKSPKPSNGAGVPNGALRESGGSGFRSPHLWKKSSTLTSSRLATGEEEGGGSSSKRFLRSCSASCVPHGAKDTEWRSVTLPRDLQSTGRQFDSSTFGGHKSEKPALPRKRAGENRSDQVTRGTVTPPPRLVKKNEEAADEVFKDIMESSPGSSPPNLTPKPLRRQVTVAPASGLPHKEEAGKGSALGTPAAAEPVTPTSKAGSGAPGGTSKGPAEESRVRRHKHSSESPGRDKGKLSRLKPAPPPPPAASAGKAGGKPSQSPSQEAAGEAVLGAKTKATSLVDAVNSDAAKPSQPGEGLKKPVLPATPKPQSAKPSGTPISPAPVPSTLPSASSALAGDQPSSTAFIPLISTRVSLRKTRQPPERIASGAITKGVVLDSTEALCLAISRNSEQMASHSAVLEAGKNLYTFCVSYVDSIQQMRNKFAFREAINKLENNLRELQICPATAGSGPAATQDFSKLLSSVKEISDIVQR
Sequence of Ras and Rab interactor 1/Tyrosine-protein kinase ABL1 (Q13671 whole entry): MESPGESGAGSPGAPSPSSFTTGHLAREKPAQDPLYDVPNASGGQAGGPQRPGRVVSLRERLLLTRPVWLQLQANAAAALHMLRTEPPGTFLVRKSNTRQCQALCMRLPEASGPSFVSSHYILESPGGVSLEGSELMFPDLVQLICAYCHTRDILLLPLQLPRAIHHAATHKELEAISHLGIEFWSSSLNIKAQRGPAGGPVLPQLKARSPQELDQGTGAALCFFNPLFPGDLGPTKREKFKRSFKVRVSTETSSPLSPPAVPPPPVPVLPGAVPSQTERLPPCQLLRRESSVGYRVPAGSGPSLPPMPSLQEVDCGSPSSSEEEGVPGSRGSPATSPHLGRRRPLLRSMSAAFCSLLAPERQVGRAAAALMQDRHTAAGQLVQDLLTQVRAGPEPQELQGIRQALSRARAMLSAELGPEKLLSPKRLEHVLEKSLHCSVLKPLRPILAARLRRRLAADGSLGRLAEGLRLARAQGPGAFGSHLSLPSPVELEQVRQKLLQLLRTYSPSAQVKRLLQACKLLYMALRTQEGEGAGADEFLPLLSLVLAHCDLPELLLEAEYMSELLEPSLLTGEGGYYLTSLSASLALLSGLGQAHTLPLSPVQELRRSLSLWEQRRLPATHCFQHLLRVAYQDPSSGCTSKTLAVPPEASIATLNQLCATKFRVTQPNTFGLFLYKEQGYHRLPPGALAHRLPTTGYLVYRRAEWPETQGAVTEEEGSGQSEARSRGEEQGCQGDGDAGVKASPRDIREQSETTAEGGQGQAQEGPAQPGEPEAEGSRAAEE

CCOC(=O)CCCCCC(=O)Nc1ccc2c(c1)C(=O)N([C@@H](C)CO)C[C@@H](C)[C@H](CN(C)C(=O)Nc1ccccc1)OCCCC[C@H](C)O2
IC50 [1]: 17.3 µM (inactive)

COc1ccc(OC)c(/C=C/C(=O)OCC(=O)Nc2nnc(-c3ccccc3)o2)c1
IC50 [2]: 9.28 µM (active) | IC50 [3]: 42.5 µM (active)

COc1ccc(NC(=O)C(c2ccc(OC)cc2)n2c(=O)c(-c3ccco3)nc3ccccc32)cc1 (stereo not given)
IC50 [4]: 15.7 µM (inactive)

CCOC(=O)c1sc2nc(CC(=O)OC)nc(NCc3ccc(Cl)cc3)c2c1C
IC50 [5]: 3.96 µM (active)

COc1ccc(NS(=O)(=O)c2ccc(N3CCOCC3)c(N)c2)cc1
AC50 [6]: 2.94 µM (active) | AC50 [7]: 1.08 µM (active) | AC50 [8]: 3.99 µM (active) | IC50 [5]: 1.16 µM (active)

CC(/C=C/c1ccc2c(c1)OCO2)=N/NC(=O)c1ccncc1
EC50 [9]: 35.5 µM (active) | IC50 [10]: 51.7 µM (inactive)

O=C(O)CC1SC(N/N=C/C=C/c2ccccc2)=NC1=O (stereo not given)
IC50 [10]: 118 µM (inactive)

COc1ccc(NC(=O)COC(=O)c2c(-c3ccccc3)noc2C)cc1
IC50 [11]: 5.15 µM (active) | IC50 [12]: 1.43 µM (active) | IC50 [13]: 35.9 µM (inactive) | AC50 [14]: 20 µM (inconclusive)

COc1ccc(/C=C/c2nc(N)nc(-c3ccccc3O)n2)cc1OC
CC50 [15]: > 50 µM (active) | EC50 [16]: 2.09 µM (active) | EC50 [17]: > 60 µM (inconclusive) | IC50 [18]: > 66.3 µM (inactive) | IC50 [19]: > 49.8 µM (inactive) | IC50 [20]: 2.69 µM (active) | IC50 [21]: 3.97 µM (active) | IC50 [22]: 26.9 µM (inactive) | IC50 [23]: > 50 µM (inactive)
